Where two headings read alike, the source gives them in different places.

Broadly, the solubility is the concentration that dissolves in the medium under given conditions. For orientation: EC50 means the concentration giving half of the maximal effect. What is called half-life is the time needed for the level to fall by half in the phase considered. The low end stands for rapid decline, the high end for slow decline.

Data set [1] concerns the target WT p97 (Homo sapiens, UniProt P55072). The following applies: for fold less potent than 17: p97 IC50 ratio vs 17; for p97 inhibition (in words): biochemical ATPase assay.
Data set [2] is described as follows: Aqueous solubility. In kind it is physicochemical. The following applies: potassium phosphate buffer, pH 7.4, solubility (μM).
Data set [3] concerns NCI-60 cell line panel. Conditions: range over lines; for pGI50, CNS tumor cell lines: NCI-60 CNS tumor subpanel; for pGI50, NSCL cancer cell lines: NCI-60 NSCL cancer subpanel; for pGI50, leukemia cell lines: NCI-60 leukemia subpanel; for pGI50, melanoma cell lines: NCI-60 melanoma subpanel; for pGI50, ovarian cancer cell lines: NCI-60 ovarian cancer subpanel; for pGI50, renal cancer cell lines: NCI-60 renal cancer subpanel.

In data set [4] the test system is HeLa cell line with the ubiquitin fusion degradation reporter UbG76V-GFP. The experiment in a line: UbG76V-GFP accumulation assay.
The nature of data set [5]: Metabolic stability in mouse liver microsomes. In kind it is in vitro ADME. The following applies: pH 7.4, MLM (t1/2, min). On the technique in general: Liver microsomes are a subcellular fraction often used to study metabolism.
Data set [6] deals with NCI-60 cell line panel. In words: cells. Conditions: Homo sapiens, read-out: pGI50, prostate cancer cell lines (converted).
Data set [7] can be described thus: Metabolic stability in human liver microsomes. The following applies: pH 7.4, HLM (t1/2, min). The format is in vitro ADME.
The mark [8] stands for this setting: Homo sapiens, HeLa, 6 h, read-out: Ub^G76 V-GFP EC50 (μM), 6 h.

WT p97, sequence (P55072 whole entry): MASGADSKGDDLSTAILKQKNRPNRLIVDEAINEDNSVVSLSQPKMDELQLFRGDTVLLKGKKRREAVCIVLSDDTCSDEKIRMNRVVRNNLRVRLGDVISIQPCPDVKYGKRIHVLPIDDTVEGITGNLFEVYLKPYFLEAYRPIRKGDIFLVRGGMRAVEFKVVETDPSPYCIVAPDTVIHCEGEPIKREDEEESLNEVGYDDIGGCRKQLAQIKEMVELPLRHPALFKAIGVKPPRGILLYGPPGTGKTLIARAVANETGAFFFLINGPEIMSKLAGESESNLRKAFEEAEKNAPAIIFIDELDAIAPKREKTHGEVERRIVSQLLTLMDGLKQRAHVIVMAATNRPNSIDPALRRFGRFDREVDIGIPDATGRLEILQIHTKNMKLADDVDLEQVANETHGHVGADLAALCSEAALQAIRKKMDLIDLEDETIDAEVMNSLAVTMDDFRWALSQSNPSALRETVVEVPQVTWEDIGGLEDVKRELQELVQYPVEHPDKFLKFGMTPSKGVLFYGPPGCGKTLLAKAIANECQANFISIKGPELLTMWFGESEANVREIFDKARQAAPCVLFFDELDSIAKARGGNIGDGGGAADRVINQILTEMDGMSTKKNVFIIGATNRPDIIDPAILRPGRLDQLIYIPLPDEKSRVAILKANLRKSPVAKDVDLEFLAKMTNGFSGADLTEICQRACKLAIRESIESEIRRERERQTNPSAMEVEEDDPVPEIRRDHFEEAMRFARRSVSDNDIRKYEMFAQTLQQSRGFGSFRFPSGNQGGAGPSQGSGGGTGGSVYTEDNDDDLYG

In the case of `c1cc(-c2cc3ccccc3[nH]2)cc(N2CCC(NCCN3CCNCC3)CC2)c1` [Compound 8], the “improvement in potency compared to compound 1” value in data set [1] (p97 IC50 ratio vs 1) is on record as about 3 fold.
On to `CC(C)N1CCN(CCCNC2CCN(c3cccc(-c4cc5ccccc5[nH]4)c3)CC2)CC1` [Compound 13], for which the “fold less potent than 2-carbon homologue 11” value in data set [1] (p97 IC50 ratio vs 11) is listed as about 2 fold.
In the case of `CN(C)CCNC1CCN(c2cccc(-c3cc4cc(F)ccc4[nH]3)c2)CC1` [Compound 15], the “fold less potent than 14” value in data set [1] (p97 IC50 ratio vs 14) is listed as over 10 fold.
`CC(C)N1CCC(NC2CCN(c3cccc(-c4cc5cc(F)ccc5[nH]4)c3)CC2)CC1` [Compound 17] had a solubility in data set [2] of over 300 µM. For the same compound, in data set [3], the “pGI50, CNS tumor cell lines” value is −5.7 to −5.8; the “pGI50, NSCL cancer cell lines” value is −5.7 to −6.0; the “pGI50, leukemia cell lines” value is reported as −5.7 to −6.7; the “pGI50, melanoma cell lines” value is given as −5.7 to −5.9. Also, in data set [3], the “pGI50, ovarian cancer cell lines” value is −5.7 to −5.8 and the “pGI50, renal cancer cell lines” value is given as −5.7 to −5.8. Also, in data set [3] (NCI-60 colon cancer subpanel), the “pGI50, colon cancer cell lines” value is listed as 5.8 to −6.4. Moreover, the EC50 in data set [4] (setting [8]) was over 40 µM. Also, in data set [5], the half-life at 10 µM was over 4.5 h. Also, the GI50 in data set [6] was 2000 nM.
With `CC(C)N1CCC(N[C@H]2CC[C@H](c3cccc(-c4cc5cc(F)ccc5[nH]4)c3)CC2)CC1` [Compound 18], in data set [1], the “fold less potent than 17” value is reported as 3–4 fold.
Turning to `CC(C)N1CCC(N[C@H]2CC[C@@H](c3cccc(-c4cc5cc(F)ccc5[nH]4)c3)CC2)CC1` [Compound 19], the “fold less potent than 17” value in data set [1] is over 100 fold. The “fold less potent compared to the trans-isomer” value in data set [1] (p97 IC50 ratio vs 18) is given as over 20 fold.
Consider `CC(C)N1CCC2(CCN(c3cccc(-c4cc5cc(F)ccc5[nH]4)c3)CC2)CC1` [Compound 20], for which the “p97 inhibition (in words)” value in data set [1] is “micromolar range”.
The same measure, in the same setting: the entry for `CC(C)N1CCN(C2CCN(c3cccc(-c4cc5cc(F)ccc5[nH]4)c3)CC2)CC1` [Compound 21] is “micromolar range”.
For the compound `CC(C)N1CC2CN(c3cccc(-c4cc5cc(F)ccc5[nH]4)c3)CC2C1` (centres unmarked) [Compound 22], the “p97 inhibition (in words)” value in data set [1] is “micromolar range”.
Compound `CN1CCN(C2(CNC3CCN(c4cccc(-c5cc6cc(F)ccc6[nH]5)c4)CC3)CCC2)CC1` [Compound 23] came in with a solubility in data set [2] of over 300 µM. The “fold more potent than the N-iPr analog (24)” value in data set [1] (p97 IC50 ratio vs 24) worked out at 5 fold. In data set [3], the “pGI50, CNS tumor cell lines” value was −5.7 to −5.8; the “pGI50, NSCL cancer cell lines” value was −5.7 to −5.8; the “pGI50, leukemia cell lines” value is given as −5.7 to −6.7; the “pGI50, melanoma cell lines” value is on record as −5.7 to −6.5. In data set [3], the “pGI50, ovarian cancer cell lines” value is −5.7 to −5.8 and the “pGI50, renal cancer cell lines” value was −5.7 to −5.8. Further, the EC50 in data set [4] (setting [8]) was over 40 µM. In addition, the half-life at 10 µM in data set [5] is over 4.5 h. For the same compound, in data set [7], the half-life at 10 µM is over 4.5 h.
Consider `Cc1cc(OCc2nnc(SC3CCCC3)n2-c2cccnc2)ccc1-c1ccc(S(C)(=O)=O)cc1` [NMS-873, reference compound], for which the EC50 in data set [4] (read-out: Ub^G76 V-GFP EC50 (μM), 1 h) came to 1.4 µM.

These data come from article PMC6231190 (ACS Medicinal Chemistry Letters, 2018).
